Measurements as given in patent US11274099B2 (Superb Wisdom Limited, priority 2017, dated 2022).

Assay: Pharmacokinetic analysis in male SD rats after IV bolus, plasma by LC-MS/MS
Type: in vivo
Details: rat, IV bolus 0.04 mg/kg; for Cmax / half-life: 3 rats per group; for half-life: read-out: T1/2, ± SD (converted); for MRT inf: read-out: MRT0-Inf (Mean Residence Time); for MRT last: read-out: MRT0-last (Mean Residence Time); for Vd: read-out: Vdss (apparent volume of distribution at equilibrium); for AUC(0-t): time zero to last measurable concentration; for AUC(0-inf): zero up to ∞
Experimental: Each of the tested compounds was administered as an IV bolus (3 rats per group) at a dose 0.04 mg/kg. Rats were fasted at least 12 hours prior to administration of test compound. […] Blood samples were processed for plasma and analyzed by LC-MS/MS for the following pharmacokinetic parameters: Cmax, T1/2, CL, Vdss, AUC0-last, AUC0-∞, MRT0-last, and MRT0-∞.

| Cmax [ng/mL] | half-life [h] | MRT inf [h] | MRT last [h] | Vd [L/kg] | AUC(0-t) [ng·h/mL] | AUC(0-inf) [ng·h/mL] | Structure (SMILES) |
| --- | --- | --- | --- | --- | --- | --- | --- |
| 40.1 ± 8.82 | 2.41 ± 1.71 | 2.43 ± 0.735 | 1.66 ± 0.151 | 3.23 ± 0.581 | 54.8 ± 6.02 | 59.4 ± 8.16 | [2H]C([2H])([2H])C([2H])([2H])OCc1nc2c(N)nc3ccccc3c2n1CC(C)(C)O [Compound 107, 1-(4-amino-2-((ethoxy-d5)methyl)-1H-imidazo[4,5-c]quinolin-1-yl)-2-methylpropan-2-ol] |
| 44.5 ± 14.2 | 1.97 ± 1.76 | 1.79 ± 0.884 | 1.26 | 2.61 ± 0.732 | 49.3 ± 8.99 | 53 ± 11.2 | [2H]C([2H])([2H])C(O)(C([2H])([2H])[2H])C([2H])([2H])n1c(COCC)nc2c(N)nc3ccccc3c21 [Compound 113, 1-(4-amino-2-(ethoxymethyl)-1H-imidazo[4,5-c]quinolin-1-yl)-2-(methyl-d3)propan-1,1,3,3,3-d5-2-ol] |
| 40.3 ± 10.7 | 1.85 ± 1.05 | 2.1 ± 0.663 | 1.5 ± 0.328 | 2.62 ± 0.516 | 56.2 ± 6.51 | 60.4 ± 7.71 | [2H]C([2H])([2H])C(O)(Cn1c(COCC)nc2c(N)nc3ccccc3c21)C([2H])([2H])[2H] [Compound 104, 2-((4-amino-2-(ethoxymethyl)-1H-imidazo[4,5-c]quinolin-1-yl)methyl)propan-1,1,1,3,3,3-d6-2-ol] |
| 43.8 ± 10.9 | 1.03 ± 1.72 | 1.37 ± 0.139 | 1.09 ± 0.081 | 2.46 ± 0.361 | 42.1 ± 6.04 | 45.9 ± 6.67 | CCOCc1nc2c(N)nc3ccccc3c2n1CC(C)(C)O [Resiquimod, 1-(4-Amino-2-(ethoxymethyl)-1H-imidazo[4,5-c]quinolin-1-yl)-2-methylpropan-2-ol, reference compound] |
